Measurements taken from PubChem BioAssay (NCI).
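In this assay, cells in 96-well plates receive the compound at five concentrations for 48 hours. Endpoints are linearly interpolated between the surrounding concentrations. GI50 = concentration required for 50% inhibition of growth. TGI: concentration producing complete growth inhibition.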

Experiments:
Assay in all cases: inhibition of tumour cell growth, NCI panel, 48 h
SR leukemia = system: SR leukemia
ACHN renal = system: ACHN renal
RXF 393 renal = system: RXF 393 renal
A498 renal = system: A498 renal
SF-295 CNS = system: SF-295 CNS
HCC-2998 colon = system: HCC-2998 colon
SN12C renal = system: SN12C renal
EKVX NSCLC = system: EKVX NSCLC
NCI/ADR-RES ovarian = system: NCI/ADR-RES ovarian
SNB-19 CNS = system: SNB-19 CNS
HOP-62 NSCLC = system: HOP-62 NSCLC
SNB-75 CNS = system: SNB-75 CNS
MALME-3M melanoma = system: MALME-3M melanoma
HCT-15 colon = system: HCT-15 colon
BT-549 breast = system: BT-549 breast
SW-620 colon = system: SW-620 colon
RPMI-8226 leukemia = system: RPMI-8226 leukemia
HCT-116 colon = system: HCT-116 colon
K-562 leukemia = system: K-562 leukemia
MOLT-4 leukemia = system: MOLT-4 leukemia
DU-145 prostate = system: DU-145 prostate
SK-MEL-5 melanoma = system: SK-MEL-5 melanoma
KM12 colon = system: KM12 colon
CCRF-CEM leukemia = system: CCRF-CEM leukemia
UACC-257 melanoma = system: UACC-257 melanoma
HL-60(TB) leukemia = system: HL-60(TB) leukemia
SF-268 CNS = system: SF-268 CNS
OVCAR-8 ovarian = system: OVCAR-8 ovarian
T-47D breast = system: T-47D breast
786-0 renal = system: 786-0 renal
U251 CNS = system: U251 CNS
NCI-H522 lung = system: NCI-H522 lung
MDA-MB-435 = system: MDA-MB-435
MCF7 breast = system: MCF7 breast
OVCAR-5 ovarian = system: OVCAR-5 ovarian
M14 melanoma = system: M14 melanoma
SF-539 CNS = system: SF-539 CNS
NCI-H460 lung = system: NCI-H460 lung
LOX IMVI melanoma = system: LOX IMVI melanoma
HT29 colon = system: HT29 colon
HOP-92 NSCLC = system: HOP-92 NSCLC
COLO 205 colon = system: COLO 205 colon
PC-3 prostate = system: PC-3 prostate
SK-MEL-28 melanoma = system: SK-MEL-28 melanoma
NCI-H23 lung = system: NCI-H23 lung
NCI-H226 lung = system: NCI-H226 lung
MDA-MB-231 breast = system: MDA-MB-231 breast
UACC-62 melanoma = system: UACC-62 melanoma
TK-10 renal = system: TK-10 renal
UO-31 renal = system: UO-31 renal
HS 578T breast = system: HS 578T breast
IGROV1 ovarian = system: IGROV1 ovarian
SK-MEL-2 melanoma = system: SK-MEL-2 melanoma
SK-OV-3 ovarian = system: SK-OV-3 ovarian
OVCAR-3 ovarian = system: OVCAR-3 ovarian
A549 NSCLC = system: A549 NSCLC
OVCAR-4 ovarian = system: OVCAR-4 ovarian
CAKI-1 renal = system: CAKI-1 renal

Work on COc1cc2c3c(n(CCNCCCNCCn4c5c(c6cc(OC)c(OC)cc6c4=O)C(=O)c4ccccc4-5)c(=O)c2cc1OC)-c1ccccc1C3=O yielded a GI50 (SR leukemia) of 0.0191 µM, a TGI (SR leukemia) of 0.702 µM and a GI50 (ACHN renal) of 0.693 µM. For the same compound, the TGI (ACHN renal) was greater than 56.3 µM, the GI50 (RXF 393 renal) was 1.14 µM and the TGI (RXF 393 renal) was 12.1 µM. The GI50 (A498 renal) was 3.12 µM, the TGI (A498 renal) was 14.5 µM and the GI50 (SF-295 CNS) was 0.105 µM. It also gave a TGI (SF-295 CNS) of 2.11 µM, a GI50 (HCC-2998 colon) of 0.0685 µM and a TGI (HCC-2998 colon) of 0.978 µM. It also gave a GI50 (SN12C renal) of less than 0.0166 µM, a TGI (SN12C renal) of 1.59 µM and a GI50 (EKVX NSCLC) of 5.89 µM. The TGI (EKVX NSCLC) was 47.2 µM, the GI50 (NCI/ADR-RES ovarian) was greater than 100 µM and the TGI (NCI/ADR-RES ovarian) was greater than 100 µM. It also gave a GI50 (SNB-19 CNS) of 0.162 µM, a TGI (SNB-19 CNS) of 4.26 µM and a GI50 (HOP-62 NSCLC) of 0.0614 µM. It also gave a TGI (HOP-62 NSCLC) of 1.9 µM, a GI50 (SNB-75 CNS) of 1.6 µM and a TGI (SNB-75 CNS) of 6.81 µM. It also gave a GI50 (MALME-3M melanoma) of 0.884 µM, a TGI (MALME-3M melanoma) of 6.19 µM and a GI50 (HCT-15 colon) of 54.2 µM. It also gave a TGI (HCT-15 colon) greater than 100 µM, a GI50 (BT-549 breast) of 2.87 µM and a TGI (BT-549 breast) greater than 100 µM. It also gave a GI50 (SW-620 colon) of 0.261 µM, a TGI (SW-620 colon) of 11.8 µM and a GI50 (RPMI-8226 leukemia) of less than 0.018 µM. It also gave a TGI (RPMI-8226 leukemia) of 0.614 µM, a GI50 (HCT-116 colon) of 0.0254 µM and a TGI (HCT-116 colon) of 1.16 µM. It also gave a GI50 (K-562 leukemia) of 0.103 µM, a TGI (K-562 leukemia) of 1.48 µM and a TGI (MOLT-4 leukemia) of 0.0432 µM. It also gave a GI50 (DU-145 prostate) of 0.197 µM, a TGI (DU-145 prostate) of 30.8 µM and a GI50 (SK-MEL-5 melanoma) of 4.93 µM. It also gave a TGI (SK-MEL-5 melanoma) of 22.5 µM, a GI50 (KM12 colon) of 0.0754 µM and a TGI (KM12 colon) of 0.59 µM. For the same compound, the GI50 (CCRF-CEM leukemia) was less than 0.0174 µM, the TGI (CCRF-CEM leukemia) was 1.63 µM and the GI50 (UACC-257 melanoma) was 73.3 µM. It also gave a TGI (UACC-257 melanoma) greater than 100 µM, a GI50 (HL-60(TB) leukemia) of less than 0.0154 µM and a TGI (HL-60(TB) leukemia) of 0.334 µM. It also gave a GI50 (SF-268 CNS) of 0.0648 µM, a GI50 (OVCAR-8 ovarian) of 0.0355 µM and a TGI (OVCAR-8 ovarian) of 5.82 µM. It also gave a GI50 (T-47D breast) of 2.32 µM, a TGI (T-47D breast) greater than 34.7 µM and a GI50 (786-0 renal) of 0.186 µM. The TGI (786-0 renal) was 6.17 µM, the GI50 (U251 CNS) was 0.0733 µM and the TGI (U251 CNS) was 1.49 µM. The GI50 (NCI-H522 lung) was less than 0.0423 µM, the TGI (NCI-H522 lung) was 6.66 µM and the GI50 (MDA-MB-435) was 1.02 µM. For the same compound, the TGI (MDA-MB-435) was 2.55 µM, the GI50 (MCF7 breast) was 0.0878 µM and the TGI (MCF7 breast) was 2.9 µM. For the same compound, the GI50 (OVCAR-5 ovarian) was 0.732 µM, the TGI (OVCAR-5 ovarian) was 7.56 µM and the GI50 (M14 melanoma) was 1.38 µM. The TGI (M14 melanoma) was 6.52 µM, the GI50 (SF-539 CNS) was 0.199 µM and the TGI (SF-539 CNS) was 15.5 µM. For the same compound, the GI50 (NCI-H460 lung) was 0.0719 µM, the TGI (NCI-H460 lung) was 4.68 µM and the GI50 (LOX IMVI melanoma) was 0.0293 µM. The TGI (LOX IMVI melanoma) was 0.413 µM, the GI50 (HT29 colon) was 0.0448 µM and the GI50 (HOP-92 NSCLC) was 0.0656 µM. The TGI (HOP-92 NSCLC) was 0.556 µM, the GI50 (COLO 205 colon) was 0.121 µM and the TGI (COLO 205 colon) was 1.01 µM. It also gave a GI50 (PC-3 prostate) of 0.0865 µM, a TGI (PC-3 prostate) of 2.09 µM and a GI50 (SK-MEL-28 melanoma) of 1.78 µM. The TGI (SK-MEL-28 melanoma) was 5.07 µM, the GI50 (NCI-H23 lung) was 1.2 µM and the TGI (NCI-H23 lung) was 17 µM. For the same compound, the GI50 (NCI-H226 lung) was 0.3 µM, the TGI (NCI-H226 lung) was 3.04 µM and the GI50 (MDA-MB-231 breast) was 0.178 µM. The TGI (MDA-MB-231 breast) was 2.1 µM, the GI50 (UACC-62 melanoma) was 1.2 µM and the TGI (UACC-62 melanoma) was 2.69 µM. For the same compound, the GI50 (TK-10 renal) was 2.9 µM, the TGI (TK-10 renal) was 21.7 µM and the GI50 (UO-31 renal) was greater than 65.1 µM. The TGI (UO-31 renal) was greater than 100 µM, the GI50 (HS 578T breast) was greater than 49 µM and the TGI (HS 578T breast) was greater than 100 µM. It also gave a GI50 (IGROV1 ovarian) of 0.0523 µM, a TGI (IGROV1 ovarian) of 9.57 µM and a GI50 (SK-MEL-2 melanoma) of 1.04 µM. The TGI (SK-MEL-2 melanoma) was 15.2 µM, the GI50 (SK-OV-3 ovarian) was 7.02 µM and the TGI (SK-OV-3 ovarian) was 32.2 µM. The GI50 (OVCAR-3 ovarian) was 0.149 µM, the TGI (OVCAR-3 ovarian) was 1.17 µM and the GI50 (A549 NSCLC) was 0.187 µM. The TGI (A549 NSCLC) was 24.2 µM, the GI50 (OVCAR-4 ovarian) was 1.6 µM and the TGI (OVCAR-4 ovarian) was 20.3 µM. The GI50 (CAKI-1 renal) was greater than 100 µM and the TGI (CAKI-1 renal) was greater than 100 µM.
